Measured values published in patent publication US10793536B2, “Vortioxetine pamoic acid salt and crystal form thereof” (SHANGHAI SYNERGY PHARMACEUTICAL SCIENCES CO., LTD, priority 2016, dated 2020).
Where two headings read alike, the source gives them in different places.

What was measured:
[1] = single dose of vortioxetine injected to the body of the rat; FDA pharmacological summary document No. 204447Orig 1s000; cited from earlier work
[2] = Wistar rat, single intramuscular injection 45.6 mg/kg; for AUC(0-t), Mean / AUC(0-∞), Mean / Cmax, Mean / MRT(0-∞), Mean / Tmax, Mean / t1/2z, Mean: non-compartment model
Protocol: Weighing 75.1 mg of each of crystal forms A, B and D of vortioxetine semi pamoic acid, adding 1 mL diluent (water for Injection containing 1% CMC-Na and 5% mannitol) to each of them, and whirling for 2 min to obtain 3 suspensions (pH˜7) of 3 crystal forms with a concentration of 45.6 mg/mL.
Drugs are administered to 9 male clean Wistar rats (Shanghai Sippr BK Laboratory Animals Ltd) with a weight range of 183.0˜186.3 g in accordance with Table 4.
Collecting blood samples by jugular puncture, about 0.2 mL for each sample, resisting against blood coagulation using heparin sodium, placing the collected blood samples on ice, wherein the blood collecting time is as follows: 30 min, 1 hrs, 2 hrs, 4 hrs, 8 hrs, 24 hrs, 48 hrs, 72 hrs, 120 hrs, 168 hrs, 216 hrs, 264 hrs, 312 hrs, 360 hrs, 504 hrs, and 672 hrs […] after administration of drug; placing the collected blood samples on ice, and separating the blood plasma centrifugally (centrifugal condition: 8,000 revolutions/min, 6 minutes, 2-8° C.); storing the collected blood plasma at −70° C. before analysis.
Separately calculating the pharmacokinetic parameters AUC0-t, AUC0-∞, MRT0-∞, Cmax, Tmax, T1/2 etc. of the tested samples using a non-compartment model for pharmacokinetic calculation software WinNonlin5.2 according to the blood concentration data of the drug. For samples with a concentration lower than the quantitative lower limit, when the pharmacokinetic parameters are calculated, the samples sampled before reaching Cmax should be calculated at zero value; after reaching Cmax, the samples at the sample point should be calculated by “below the limit of quantitation” (BLQ).

Cc1ccc(Sc2ccccc2N2CCNCC2)c(C)c1 [vortioxetine, 1-[2-(2,4-dimethylphenylthiorueaalkyl)phenyl] piperazine]
half-life period t1/2 [1]: more than two hours

Cc1ccc(Sc2ccccc2N2CCNCC2)c(C)c1.Cc1ccc(Sc2ccccc2N2CCNCC2)c(C)c1.O=C(O)c1cc2ccccc2c(Cc2c(O)c(C(=O)O)cc3ccccc23)c1O [Crystal form B of vortioxetine semi pamoic acid salt] [Crystal Form B Vortioxetine Semi Pamoic Acid Salt]
Concentration of vortioxetine in plasma, Mean ([2]; blood sampling time 0.5 h): 2.14 ng/mL | Concentration of vortioxetine in plasma, Mean ([2]; blood sampling time 1 h): 4.56 ng/mL | Concentration of vortioxetine in plasma, Mean ([2]; blood sampling time 2 h): 10.17 ng/mL | Concentration of vortioxetine in plasma, Mean ([2]; blood sampling time 4 h): 18.05 ng/mL | Concentration of vortioxetine in plasma, Mean ([2]; blood sampling time 8 h): 21.12 ng/mL | Concentration of vortioxetine in plasma, Mean ([2]; blood sampling time 24 h): 17.67 ng/mL | Concentration of vortioxetine in plasma, Mean ([2]; blood sampling time 48 h): 14.56 ng/mL | Concentration of vortioxetine in plasma, Mean ([2]; blood sampling time 72 h): 15.65 ng/mL | Concentration of vortioxetine in plasma, Mean ([2]; blood sampling time 120 h): 32.47 ng/mL | Concentration of vortioxetine in plasma, Mean ([2]; blood sampling time 168 h): 40.21 ng/mL | Concentration of vortioxetine in plasma, Mean ([2]; blood sampling time 216 h): 24.00 ng/mL | Concentration of vortioxetine in plasma, Mean ([2]; blood sampling time 264 h): 15.19 ng/mL | Concentration of vortioxetine in plasma, Mean ([2]; blood sampling time 312 h): 10.55 ng/mL | Concentration of vortioxetine in plasma, Mean ([2]; blood sampling time 360 h): 6.02 ng/mL | Concentration of vortioxetine in plasma, Mean ([2]; blood sampling time 504 h): 2.62 ng/mL | Concentration of vortioxetine in plasma, Mean ([2]; blood sampling time 672 h): 2.06 ng/mL | AUC(0-t), Mean [2]: 8588.42 ng·h/mL | AUC(0-∞), Mean [2]: 8939.49 ng·h/mL | Cmax, Mean [2]: 40.21 ng/mL | MRT(0-∞), Mean [2]: 226.30 h | Tmax, Mean [2]: 168 h | t1/2z, Mean [2]: 116.6 h

Cc1ccc(Sc2ccccc2N2CCNCC2)c(C)c1.Cc1ccc(Sc2ccccc2N2CCNCC2)c(C)c1.O=C(O)c1cc2ccccc2c(Cc2c(O)c(C(=O)O)cc3ccccc23)c1O [Crystal form D of vortioxetine semi pamoic acid salt] [Crystal Form D Vortioxetine Semi Pamoic Acid Salt]
Concentration of vortioxetine in plasma, Mean ([2]; blood sampling time 0.5 h): 4.34 ng/mL | Concentration of vortioxetine in plasma, Mean ([2]; blood sampling time 1 h): 8.10 ng/mL | Concentration of vortioxetine in plasma, Mean ([2]; blood sampling time 2 h): 11.59 ng/mL | Concentration of vortioxetine in plasma, Mean ([2]; blood sampling time 4 h): 15.37 ng/mL | Concentration of vortioxetine in plasma, Mean ([2]; blood sampling time 8 h): 23.28 ng/mL | Concentration of vortioxetine in plasma, Mean ([2]; blood sampling time 24 h): 24.08 ng/mL | Concentration of vortioxetine in plasma, Mean ([2]; blood sampling time 48 h): 14.11 ng/mL | Concentration of vortioxetine in plasma, Mean ([2]; blood sampling time 72 h): 19.52 ng/mL | Concentration of vortioxetine in plasma, Mean ([2]; blood sampling time 120 h): 41.99 ng/mL | Concentration of vortioxetine in plasma, Mean ([2]; blood sampling time 168 h): 46.20 ng/mL | Concentration of vortioxetine in plasma, Mean ([2]; blood sampling time 216 h): 16.02 ng/mL | Concentration of vortioxetine in plasma, Mean ([2]; blood sampling time 264 h): 5.66 ng/mL | Concentration of vortioxetine in plasma, Mean ([2]; blood sampling time 312 h): 3.66 ng/mL | Concentration of vortioxetine in plasma, Mean ([2]; blood sampling time 360 h): 2.03 ng/mL | Concentration of vortioxetine in plasma, Mean ([2]; blood sampling time 504 h): 1.56 ng/mL | Concentration of vortioxetine in plasma, Mean ([2]; blood sampling time 672 h): 1.69 ng/mL | AUC(0-t), Mean [2]: 7856.57 ng·h/mL | AUC(0-∞), Mean [2]: 8392.02 ng·h/mL | Cmax, Mean [2]: 48.65 ng/mL | MRT(0-∞), Mean [2]: 162.48 h | Tmax, Mean [2]: 152.00 h | t1/2z, Mean [2]: 228.84 h

Cc1ccc(Sc2ccccc2N2CCNCC2)c(C)c1.Cc1ccc(Sc2ccccc2N2CCNCC2)c(C)c1.O=C(O)c1cc2ccccc2c(Cc2c(O)c(C(=O)O)cc3ccccc23)c1O [Crystal form A of vortioxetine semi pamoic acid salt] [Crystal Form a Vortioxetine Semi Pamoic Acid Salt]
Concentration of vortioxetine in plasma, Mean ([2]; blood sampling time 0.5 h): 3.12 ng/mL | Concentration of vortioxetine in plasma, Mean ([2]; blood sampling time 1 h): 5.80 ng/mL | Concentration of vortioxetine in plasma, Mean ([2]; blood sampling time 2 h): 8.41 ng/mL | Concentration of vortioxetine in plasma, Mean ([2]; blood sampling time 4 h): 10.75 ng/mL | Concentration of vortioxetine in plasma, Mean ([2]; blood sampling time 8 h): 16.22 ng/mL | Concentration of vortioxetine in plasma, Mean ([2]; blood sampling time 24 h): 15.77 ng/mL | Concentration of vortioxetine in plasma, Mean ([2]; blood sampling time 48 h): 8.70 ng/mL | Concentration of vortioxetine in plasma, Mean ([2]; blood sampling time 72 h): 11.68 ng/mL | Concentration of vortioxetine in plasma, Mean ([2]; blood sampling time 120 h): 35.38 ng/mL | Concentration of vortioxetine in plasma, Mean ([2]; blood sampling time 168 h): 31.34 ng/mL | Concentration of vortioxetine in plasma, Mean ([2]; blood sampling time 216 h): 13.35 ng/mL | Concentration of vortioxetine in plasma, Mean ([2]; blood sampling time 264 h): 6.29 ng/mL | Concentration of vortioxetine in plasma, Mean ([2]; blood sampling time 312 h): 4.07 ng/mL | Concentration of vortioxetine in plasma, Mean ([2]; blood sampling time 360 h): 2.26 ng/mL | Concentration of vortioxetine in plasma, Mean ([2]; blood sampling time 504 h): 1.73 ng/mL | Concentration of vortioxetine in plasma, Mean ([2]; blood sampling time 672 h): 1.88 ng/mL | AUC(0-t), Mean [2]: 6143.08 ng·h/mL | AUC(0-∞), Mean [2]: 6503.21 ng·h/mL | Cmax, Mean [2]: 38.18 ng/mL | MRT(0-∞), Mean [2]: 227.18 h | Tmax, Mean [2]: 136.00 h | t1/2z, Mean [2]: 126.06 h
